One block for each compound: values may come before it. Activity calls are given as the source filed them. No cut-off for these calls is given here.
Assays:
Leishmania donovani [1] = test: Antileishmanial activity against Leishmania donovani MHOM/IN/AG/83 promastigotes after 48 hrs by MTT assay; type: functional, organism-based; conditions: MHOM/IN/AG/83, 48 h
Leishmania donovani [2] = test: Antileishmanial activity against Leishmania donovani MHOM/IN/AG/83 amastigotes infected in BALB/c mouse peritoneal macrophages after 42 hrs by Giemsa staining-based microscopic analysis; type: functional, organism-based; conditions: MHOM/IN/AG/83, 42 h
[3] = Therapeutic index, ratio of EC50 for BALB/c mouse peritoneal macrophages to EC50 for Leishmania donovani MHOM/IN/AG/83 amastigotes; type: toxicity; conditions: read-out: Ratio EC50
[4] = Drug uptake in mouse RAW264.7 cells assessed as ratio of drug level (cell lysate)/(drug level (supernatant) + drug level (cell lysate) at 10 ug/ml incubated for 3 hrs by HPLC method; type: ADME, cell-based; conditions: raw264.7, 3 h
[5] = Drug uptake in mouse RAW264.7 cells assessed as retention time at 10 ug/ml incubated for 3 hrs by HPLC method; type: ADME, cell-based; conditions: raw264.7, 3 h
Peritoneal macrophage [6] = test: Cytotoxicity against BALB/c mouse peritoneal macrophages after 48 hrs by MTT assay; type: cell-based
[7] = Therapeutic index, ratio of IC50 for mouse RAW264.7 cells to IC50 for Leishmania donovani MHOM/IN/AG/83 promastigotes; type: toxicity; conditions: read-out: Ratio IC50
Peritoneal macrophage [8] = test: Induction of NO generation in Leishmania donovani MHOM/IN/AG/83 infected BALB/c mouse peritoneal macrophages assessed as nitrite levels after 48 hrs by Griess assay relative to untreated control; type: functional
RAW264.7 = test: Cytotoxicity against mouse RAW264.7 cells after 48 hrs by MTT assay; type: cell-based; conditions: RAW264.7, 48 h
Peritoneal macrophage [9] = test: Induction of innate immune response in Leishmania donovani MHOM/IN/AG/83 infected BALB/c mouse peritoneal macrophage assessed as downregulation of IL-10 levels at 2.5 ug/ml after 24 hrs by sandwich ELISA; type: functional
Mus musculus [10] = species on record: Mus musculus; test: Induction of innate immune response in splenocytes derived from compound treated BALB/c mouse infected with Leishmania donovani MHOM/IN/AG/83 assessed as upregulation of IFNgamma mRNA expression levels by RT-PCR analysis; type: functional, organism-based
Peritoneal macrophage [11] = test: Induction of innate immune response in Leishmania donovani MHOM/IN/AG/83 infected BALB/c mouse peritoneal macrophages assessed as increase in iNOS2 mRNA expression at 2.5 ug/ml incubated for 6 hrs by RT-PCR analysis relative to control; type: functional
[12] = Ratio of therapeutic index of test compound to Miltefosine by measuring ratio of IC50 for BALB/c mouse peritoneal macrophages to IC50 for Leishmania donovani MHOM/IN/AG/83 amastigotes; type: toxicity
Mus musculus [13] = species on record: Mus musculus; test: Induction of innate immune response in splenocytes derived from compound treated BALB/c mouse infected with Leishmania donovani MHOM/IN/AG/83 assessed as increase in iNOS2 mRNA expression by RT-PCR analysis; type: functional
Leishmania donovani [14] = test: (§1) Antileishmanial activity against Leishmania donovani MHOM/IN/AG/83 promastigotes infected in BALB/c mouse assessed as reduction of parasite burden in liver at 10 mg/kg, iv administered starting 2 weeks of post infection with five days interval between each treatment and measured after 28 days of treatment by Giemsa staining-based assay; type: functional; set-up: scale not given: the % may be the effect or the level left
Mus musculus [15] = species on record: Mus musculus; test: Induction of innate immune response in splenocytes derived from compound treated BALB/c mouse infected with Leishmania donovani MHOM/IN/AG/83 assessed as reduction in arginase-1 activity using L-arginine by spectrometry relative to control; type: functional
Mus musculus [16] = species on record: Mus musculus; test: Induction of innate immune response in splenocytes derived from compound treated BALB/c mouse infected with Leishmania donovani MHOM/IN/AG/83 assessed as upregulation of IFNgamma protein expression levels by sandwich ELISA; type: functional, organism-based
Peritoneal macrophage [17] = test: Induction of innate immune response in Leishmania donovani MHOM/IN/AG/83 infected BALB/c mouse peritoneal macrophages assessed as upregulation of IL-12 mRNA expression at 2.5 ug/ml after 6 hrs by RT-PCR analysis; type: functional, cell-based
Mus musculus [18] = species on record: Mus musculus; test: Induction of innate immune response in splenocytes derived from compound treated BALB/c mouse infected with Leishmania donovani MHOM/IN/AG/83 assessed as downregulation of IL-10 protein expression by sandwich ELISA; type: functional, organism-based
Peritoneal macrophage [19] = test: Induction of innate immune response in Leishmania donovani MHOM/IN/AG/83 infected BALB/c mouse peritoneal macrophages assessed as upregulation of IL-12 levels at 2.5 ug/ml after 24 hrs by sandwich ELISA; type: functional
Mus musculus [20] = species on record: Mus musculus; test: Induction of innate immune response in splenocytes derived from compound treated BALB/c mouse infected with Leishmania donovani MHOM/IN/AG/83 by Griess assay; type: functional
Peritoneal macrophage [21] = test: Induction of innate immune response in Leishmania donovani MHOM/IN/AG/83 infected BALB/c mouse peritoneal macrophages assessed as downregulation of IL-10 mRNA expression at 2.5 ug/ml after 6 hrs by RT-PCR analysis; type: functional, cell-based
Mus musculus [22] = species on record: Mus musculus; test: Induction of innate immune response in splenocytes derived from compound treated BALB/c mouse infected with Leishmania donovani MHOM/IN/AG/83 assessed as reduction in arginase-1 expression by RT-PCR analysis relative to untreated control; type: functional
[23] = Binding affinity to plasma membrane of mouse RAW264.7 cells at 10 uM using compound with fluorophoric moiety attached via carbamate linkage by fluorescence microscopy; type: ADME, cell-based; conditions: raw264.7, 10 µM
[24] = Ratio of therapeutic index of test compound to Amphotericin B by measuring ratio of IC50 for BALB/c mouse peritoneal macrophages to IC50 for Leishmania donovani MHOM/IN/AG/83 amastigotes; type: toxicity
Leishmania donovani [25] = test: as §1, with “25” for “10”; type: functional; set-up: scale not given: the % may be the effect or the level left
Mus musculus [26] = species on record: Mus musculus; test: Induction of innate immune response in splenocytes derived from compound treated BALB/c mouse infected with Leishmania donovani MHOM/IN/AG/83 assessed as upregulation of IL-12 protein expression by sandwich ELISA; type: functional, organism-based
Peritoneal macrophage [27] = test: Induction of NO generation in Leishmania donovani MHOM/IN/AG/83 infected BALB/c mouse peritoneal macrophages assessed as increase in nitrite levels at 2.5 ug/ml after 48 hrs by Griess assay relative to untreated control; type: functional
Leishmania donovani [28] = test: as §1, with “spleen” for “liver”, “25” for “10”; type: functional; set-up: scale not given: the % may be the effect or the level left
Peritoneal macrophage [29] = test: Induction of NO generation in Leishmania donovani MHOM/IN/AG/83 infected BALB/c mouse peritoneal macrophages assessed as increase in nitrite levels at 1 ug/ml after 48 hrs by Griess assay relative to untreated control; type: functional
Peritoneal macrophage [30] = test: Induction of innate immune response in Leishmania donovani MHOM/IN/AG/83 infected BALB/c mouse peritoneal macrophages assessed as reduction in arginase 1 activity at 1 to 5 ug/ml incubated for 48 hrs using L-arginine and by spectrometry relative to control; type: functional
Mus musculus [31] = species on record: Mus musculus; test: Induction of innate immune response in splenocytes derived from compound treated BALB/c mouse infected with Leishmania donovani MHOM/IN/AG/83 assessed as upregulation of IL-12 mRNA expression by RT-PCR analysis; type: functional, organism-based
Mus musculus [32] = species on record: Mus musculus; test: Induction of innate immune response in splenocytes derived from compound treated BALB/c mouse infected with Leishmania donovani MHOM/IN/AG/83 assessed as downregulation of IL-10 mRNA expression by RT-PCR analysis; type: functional, organism-based
Peritoneal macrophage [33] = test: Induction of NO generation in Leishmania donovani MHOM/IN/AG/83 infected BALB/c mouse peritoneal macrophages assessed as increase in nitrite levels at 5 ug/ml after 48 hrs by Griess assay relative to untreated control; type: functional
Leishmania donovani [34] = test: as §1, with “spleen” for “liver”; type: functional; set-up: scale not given: the % may be the effect or the level left

EC50 (Leishmania donovani [2]): 7.17 µM
Ratio [4]: 0.73
Retention_time [5]: 3.867 min
Compound: C=CCc1ccc(OC(=O)COc2ccccc2)c(OC)c1
IC50 (Leishmania donovani [1]): 28.9 µM
selectivity ratio [3]: 55.1
EC50 (Peritoneal macrophage [6]): 391 µM
selectivity ratio [7]: 13.7
Activity (Peritoneal macrophage [8]): Dose-dependent effect
Activity (Peritoneal macrophage [8]; record 2): 39.02 µM
IC50 (RAW264.7): 396 µM

EC50 (Leishmania donovani [2]): 4.25 µM
Ratio [4]: 0.62
Retention_time [5]: 3.173 min
Activity [23]: Active
Compound: C=CCc1ccc(OC(=O)CCCCCCCCCCCCCCCCC)c(OC)c1
IC50 (Leishmania donovani [1]): 20.1 µM
fold change (FC) (Peritoneal macrophage [9]): 3
Activity (Mus musculus [10]): Active
fold change (FC) (Peritoneal macrophage [11]): 8
selectivity ratio [3]: 82.2
Ratio [12]: 10 to 13
fold change (FC) (Mus musculus [13]): 8
Activity (Leishmania donovani [14]): 81%
fold change (FC) (Mus musculus [15]): 4
Activity (Mus musculus [16]): Active
Activity (Peritoneal macrophage [17]): Active
Activity (Mus musculus [18]): Active
fold change (FC) (Peritoneal macrophage [19]): 5
fold change (FC) (Mus musculus [20]): 8
Activity (Peritoneal macrophage [21]): Active
fold change (FC) (Mus musculus [22]): 4
EC50 (Peritoneal macrophage [6]): 346 µM
Ratio [24]: 10 to 13
selectivity ratio [7]: 15.2
Activity (Leishmania donovani [25]): 92%
Activity (Mus musculus [26]): Active
fold change (FC) (Peritoneal macrophage [27]): 7
Activity (Leishmania donovani [28]): 87%
fold change (FC) (Peritoneal macrophage [29]): 3
fold change (FC) (Peritoneal macrophage [30]): 4
Activity (Mus musculus [31]): Active
Activity (Peritoneal macrophage [8]): Dose-dependent effect
Activity (Peritoneal macrophage [8]; record 2): 38.83 µM
Activity (Mus musculus [32]): Active
fold change (FC) (Peritoneal macrophage [33]): 8
IC50 (RAW264.7): 305 µM
Activity (Leishmania donovani [34]): 72%

— ChEMBL document CHEMBL4130392, “Eugenol derived immunomodulatory molecules against visceral leishmaniasis” (Eur J Med Chem, 2017)
